Experimental data taken from patent US20080064702A1, “Use of folates for the prevention and treatment of vascular diseases” (priority 2006, published 2008).
Entries after “also recorded” stand apart in the source; their conditions may differ. Read-outs that look alike come from different tables or passages of the source.

Tests used:
saphenous veins [1] = tested on: saphenous veins
Protocol: (§1) Vessel Harvesting and Ex Vivo Studies. Samples of SV (n=38) and IMA (n=46) from a total of 61 patients, were harvested during CABG operation, as previously described (Channon K M, Trends Cardiovasc Med 2004; 14:323-327; Guzik T J et al., Circulation 2002; 105:1656-1662). Vessel segments were transferred to the laboratory within 30 minutes, in ice cold Krebs-Henseleit buffer. Segments of SV and IMA were incubated with 5-MTHF (0-100 μM) in Krebs-Henseleit buffer for 45 minutes prior to assays of endothelial function, superoxide/peroxynitrite production, radio-labelled arginine/citrulline conversion, western blotting or tissue 5-MTHF and biopterin levels.
(§2) Vasomotor Studies. Endothelium-dependent and endothelium-independent dilatation were assessed using isometric tension studies, as previously described (Guzik T J et al, Circ Res. 2000; 86:e85). Vessel rings were equilibrated and passively pre-tensioned to 3 g, an optimal resting tension that was determined in baseline studies of contractile response to KCl. Following precontraction with phenylephrine (3×10^−6M), vasomotor responses to the endothelium-mediated agonists acetylcholine (ACh, 10^−9M to 10^−5M) and bradykinin (BK, 10^−9 M to 10^−5M), were quantified in 4 equally sized segments from the same vessel. In the ex vivo experiments, vasomotor responses were repeated after incubation for 45 minutes with 0 (control), 1, 10 or 100 μM 5-MTHF, added to the organ bath chambers. Finally, relaxations to the NO donor sodium nitroprusside (SNP, 10^−10M to 10^−6M), were evaluated in the presence of the NOS inhibitor NG-nitro-L-arginine methyl ester (L-NAME; 100 μM).

[2] = tested on: saphenous veins and internal mammary arteries; conditions: SV and IMA, higher 5-MTHF concentrations (10, 100 μM) compared with 1 μM
Protocol: as §1
Superoxide/Peroxynitrite Measurements. Vascular superoxide production was measured from fresh human vessels using lucigenin (5 μM)-enhanced chemiluminescence as previously described (Skatchkov M P et al, Biochem Biophys Res Commun. 1999; 254:319). […] NOS-derived superoxide was measured by adding L-NAME (100 μM) in the equilibrating buffer, and by calculating the difference in superoxide signal compared with basal conditions. Vascular peroxynitrite was determined using luminol (100 μM) instead of lucigenin, and by subtracting the remaining signal after adding the specific peroxynitrite scavenger uric acid (1 mM), as previously described (Laursen J B et al, Circulation. 2001; 103:1282).

[3] = 45 minutes after infusion of 5-MTHF; from 11.0±0.62 before
Source text: (§3) In Vivo Studies. Patients (n=56) undergoing CABG participated in a double-blind placebo controlled study, where they received an intravenous infusion of either 5-MTHF (Merck Eprova, Switzerland) or placebo, administered before the CABG.

saphenous veins [4] = tested on: saphenous veins; remark: listed apart in the source
Protocol: as §3, §2

[5] = tested on: saphenous veins and internal mammary arteries; conditions: ca. 45 min after 0.13 mg/kg i.v., vs placebo
Protocol: as §3
Superoxide/Peroxynitrite Measurements. Vascular superoxide production was measured from fresh human vessels using lucigenin (5 μM)-enhanced chemiluminescence as previously described (Skatchkov M P et al, Biochem Biophys Res Commun. 1999; 254:319). Samples of SV and IMA from the same patient were opened longitudinally to expose the endothelial surface and then equilibrated for 20 minutes in oxygenated (95% O2/5% CO2) Krebs-HEPES buffer (2 mL, pH=7.4) at 37° C. […]. NOS-derived superoxide was measured by adding L-NAME (100 μM) in the equilibrating buffer, and by calculating the difference in superoxide signal compared with basal conditions. Vascular peroxynitrite was determined using luminol (100 μM) instead of lucigenin, and by subtracting the remaining signal after adding the specific peroxynitrite scavenger uric acid (1 mM), as previously described (Laursen J B et al, Circulation. 2001; 103:1282).

[6] = Superoxide scavenging assay, xanthine/xanthine oxidase system; format: biochemical
Protocol: Superoxide and Peroxynitrite Scavenging Assays. The direct superoxide scavenging effect of 5-MTHF was evaluated with the use of xanthine/xanthine oxidase system. Superoxide production was induced by adding xanthine oxidase ([…]/mL) in Krebs HEPES buffer (2 mL, pH=7.4) at 37° C., containing xanthine (0.133 mM) and lucigenin (5 μM), in the presence of 5-MTHF (0-100 μM) or equal concentrations of ascorbic acid as positive control. Peroxynitrite production was induced by adding 3-morpholinosydnonimine (SIN-1, 1 μM) in Krebs HEPES buffer (2 mL, pH=7.4) at 37° C. containing luminol (100 μM), in the presence of different concentrations of 5-MTHF (0-100 μM) or equal concentrations of uric acid as positive control as previously described (Kuzkaya N et al, J Biol Chem. 2003; 278:22546). The scavenging effects of 5-MTHF, vitamin C or uric acid were calculated as the percent inhibition of chemiluminescence compared with control.

[7] = Peroxynitrite scavenging assay, SIN-1 system with luminol; format: biochemical; conditions: SIN-1 1 μM; for direct peroxynitrite scavenging effect: concentrations as low as 1 μM, 5-MTHF and uric acid at equal concentrations
Protocol: Superoxide and Peroxynitrite Scavenging Assays. The direct superoxide scavenging effect of 5-MTHF was evaluated with the use of xanthine/xanthine oxidase system. […] The scavenging effects of 5-MTHF, vitamin C or uric acid were calculated as the percent inhibition of chemiluminescence compared with control.

vascular endothelium = conditions: vessels from 5-MTHF-treated patients
Protocol: as §3
Oxidative Fluorescent Microtopography. In situ superoxide production was determined in vessel cryosections with the oxidative fluorescent dye dihydroethidium (DHE) (Bendall J K et al, Circ Res. 2005; 97:864). Paired cryosections ([…]) from the same vessel were incubated with DHE (2 μmol/L) in PBS, with or without L-NAME (100 μM). Fluorescence images (x40, Zeiss LSM 510 META laser 6 scanning confocal microscope) were obtained from each vessel quadrant, incorporating the luminal side of the vessel to quantify endothelial cell fluorescence. In each case, segments of vessel rings (with and without L-NAME) were analyzed in parallel with identical imaging parameters. DHE image analysis was carried out in a blinded fashion, and by two independent investigators, by using Image-Pro Plus software (Media Cybernetics).

eNOS = eNOS (Homo sapiens, UniProt P29474); conditions: IMA, 5-MTHF 1 μM for 45 minutes; paired control 0.14±0.02%/g
Protocol: as §1

[8] = tested on: saphenous veins and internal mammary arteries; conditions: IMA, 45 min ex vivo with 1 μM 5-MTHF, vs control
Protocol: as §1
Determination of Biopterin Levels. Biopterin levels in human vessels were determined by HPLC, as previously described (Alp N J et al, J Clin Invest. 2003; 112:725) and expressed as pmol/g of tissue. To examine the effect of 5-MTHF on peroxynitrite-induced oxidation of BH4, SIN-1 (2 μM) was used to oxidize BH4 (0.1 μM) in the presence or absence of 5-MTHF (1 μM) at 37° C. for 14 minutes (Milstien S and Katusic Z. Biochem Biophys Res Commun. 1999; 263:681).

[9] = SV, 45 min
Protocol: Plasma and tissue levels of 5-MTHF were determined by high performance liquid chromatography (HPLC), as previously described (Leeming R J et al, Metabolism. 1990; 39:902).

[10] = 0.13 mg/kg i.v.; for plasma concentration: preliminary studies
Protocol: (§4) Patients (n=56) undergoing CABG participated in a double-blind placebo controlled study, where they received an intravenous infusion of either 5-MTHF (Merck Eprova, Switzerland) or placebo, administered before the CABG. […] Samples 5 of SV and IMA were harvested ˜45 minutes after the infusion of 5-MTHF (mean time of harvesting 45.7±2.9 minutes after infusion), and assayed for NO-mediated vasomotor function, vascular superoxide production, tissue 5-MTHF and biopterin levels, as described below.
(§5) Blood samples were collected prior to administration of 5-MTHF or placebo, and at the time of vessel harvesting. […] Plasma and tissue levels of 5-MTHF were determined by high performance liquid chromatography (HPLC), as previously described (Leeming R J et al, Metabolism. 1990; 39:902).

[11] = ~45 min after 0.13 mg/kg i.v.
Protocol: as §4, §5

[12] = 5-MTHF 10 or 100 μM compared with 1 μM
[13] = SV segments ~45 min after 0.13 mg/kg i.v., vs placebo

Sequence of eNOS (P29474 2-1203 limits assumed): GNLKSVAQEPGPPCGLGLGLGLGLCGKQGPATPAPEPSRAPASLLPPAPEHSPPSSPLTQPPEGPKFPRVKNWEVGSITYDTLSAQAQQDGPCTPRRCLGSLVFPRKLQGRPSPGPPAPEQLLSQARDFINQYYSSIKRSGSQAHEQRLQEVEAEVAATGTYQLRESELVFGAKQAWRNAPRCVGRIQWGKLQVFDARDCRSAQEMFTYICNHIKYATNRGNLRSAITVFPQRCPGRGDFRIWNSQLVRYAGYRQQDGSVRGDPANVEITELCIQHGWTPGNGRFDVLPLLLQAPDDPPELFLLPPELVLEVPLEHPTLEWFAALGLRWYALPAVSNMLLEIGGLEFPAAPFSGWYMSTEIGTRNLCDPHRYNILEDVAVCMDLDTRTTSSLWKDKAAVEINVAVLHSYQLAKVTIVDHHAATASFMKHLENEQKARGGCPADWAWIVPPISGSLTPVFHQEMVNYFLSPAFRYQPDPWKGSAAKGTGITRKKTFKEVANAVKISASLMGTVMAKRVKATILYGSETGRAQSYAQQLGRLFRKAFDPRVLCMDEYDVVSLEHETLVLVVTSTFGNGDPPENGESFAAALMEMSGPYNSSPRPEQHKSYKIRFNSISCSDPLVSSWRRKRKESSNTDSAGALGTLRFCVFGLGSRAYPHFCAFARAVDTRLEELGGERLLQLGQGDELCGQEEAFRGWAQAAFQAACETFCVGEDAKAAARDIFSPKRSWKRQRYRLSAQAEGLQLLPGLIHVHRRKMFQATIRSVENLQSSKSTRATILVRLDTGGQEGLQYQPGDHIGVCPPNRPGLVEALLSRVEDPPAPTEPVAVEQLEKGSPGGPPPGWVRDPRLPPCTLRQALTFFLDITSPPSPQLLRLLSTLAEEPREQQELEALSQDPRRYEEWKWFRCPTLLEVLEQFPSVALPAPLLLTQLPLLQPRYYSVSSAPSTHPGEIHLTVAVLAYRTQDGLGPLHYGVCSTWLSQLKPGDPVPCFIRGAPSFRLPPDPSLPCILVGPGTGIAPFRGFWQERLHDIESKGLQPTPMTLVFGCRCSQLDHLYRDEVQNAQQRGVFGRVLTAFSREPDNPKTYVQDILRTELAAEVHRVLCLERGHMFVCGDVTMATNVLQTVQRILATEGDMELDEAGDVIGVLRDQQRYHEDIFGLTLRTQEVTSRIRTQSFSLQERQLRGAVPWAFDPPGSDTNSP

## CN1c2c(nc(N)[nH]c2=O)NCC1CNc1ccc(C(=O)N[C@@H](CCC(=O)O)C(=O)O)cc1 (stereo partly shown) [5-MTHF, 5-methyltetrahydrofolate]
Saphenous veins [1]; [12]
  maximum relaxations to Ach: no further increase
  maximum relaxations to BK: no further increase
Saphenous veins [1]; 5-MTHF-incubated vs control vessel segments, data not shown
  vasomotor responses to the endothelium-independent agonist SNP: no differences
Saphenous veins [1]; baseline 7.9±0.8 g, after incubation
  absolute contractions in response to phenylephrine after incubation: remained unchanged
[2]
  vascular peroxynitrite production: no further reductions
  vascular superoxide production: no further reductions
[3]
  plasma tHcy: 9.42 ± 0.46 µmol/L
Saphenous veins [4]; 5-MTHF-treated group, placebo 7.72±1.31 g
  absolute pre-contractions to phenylephrine: 8.20 ± 1.26 g
Saphenous veins [4]; [13]
  vasomotor responses to acetylcholine (ACh): significantly greater
  vasomotor responses to bradykinin (BK): significantly greater
Saphenous veins [4]; SV segments ~45 min after 0.13 mg/kg i.v., placebo 19.4±3.3%
  maximal vasorelaxations to ACh: 43.2±4.5%
Saphenous veins [4]; SV segments ~45 min after 0.13 mg/kg i.v., placebo 37.1±3.7%
  maximal vasorelaxations to BK: 51.4±4.2%
[5]; IMA
  vascular superoxide: significantly lower
[5]; SV
  vascular superoxide: significantly lower
[6]; low concentrations (1-10 μM)
  effect on measurable superoxide: no detectable effect
[6]; only at concentrations >10 μM (FIG. 5A)
  superoxide scavenging effect: weak superoxide scavenging effect
[6]; very high concentrations (100 μM)
  superoxide scavenging: only modest superoxide scavenging
[7]
  direct peroxynitrite scavenging effect: strong direct peroxynitrite scavenging effect; also recorded: potent scavenging effect
[7]; at 1 μM
  reduction of measurable peroxynitrite: 75%
Vascular endothelium
  DHE fluorescence in other regions of the vessel wall: unaffected
eNOS
  citrulline production (conversion of radio-labelled arginine to citrulline): 0.20±0.03 %/g tissue
[8]
  BH4/tBio ratio: increased
  vascular BH4: increased
[9]; incubation with 5-MTHF 1 μM, control 0.40±0.06
  vascular 5-MTHF levels: 3.40±0.71 nmol/g tissue
[9]; incubation with 5-MTHF 10 μM
  vascular 5-MTHF levels: 21.3±8.10 nmol/g tissue
[9]; incubation with 5-MTHF 100 μM
  vascular 5-MTHF levels: 57.2±18.9 nmol/g tissue
[10]; 45 minutes after infusion
  plasma concentration: 1000 to 2000 nM
[10]; at the time of vessel harvesting (~45 min), 5-MTHF-treated group
  plasma 5-MTHF levels: 2.28 ± 0.21 µM
[10]; immediately after administration
  plasma concentration: 2000 to 3000 nM
[11]; IMA, placebo 1.54±0.38
  tissue 5-MTHF levels: 12.7 ± 2.58 nmol/g
[11]; SV, placebo 1.19±0.25
  tissue 5-MTHF levels: 9.35 ± 1.72 nmol/g

## O=C1O[C@H]([C@@H](O)CO)C(O)=C1O [ascorbic acid, reference compound]
[6]; at 1 μM
  reduction of measurable superoxide: 50%
[6]; even at low concentrations (FIG. 5A)
  superoxide scavenging effect: expected scavenging effect

## O=c1[nH]c(=O)c2[nH]c(=O)[nH]c2[nH]1 [uric acid, reference compound]
[7]
  direct peroxynitrite scavenging effect: comparable
